Results taken from US4011207A, “Des-(Ala^1, Gly^2,Lys^4 -Srif, Des-(Ala^1, Gly^2, Lys^4)-D-Trp^8 -Srif and intermediates” (American Home Products Corporation, priority 1976, dated 1977).
Where a name gives a salt, the structure may show the parent alone. Where a SMILES comes first, the peptide text is derived from it. Bridges are numbered along the chain shown (N, C = ends).

Tests used:
Format in all cases: in vivo
growth hormone = test: Growth hormone level by radioimmunoassay in nembutal-treated rats after subcutaneous injection
Description: (§1) The growth hormone activity of the compound of Example 2 was determined by injecting rats weighing about 150 g. first with nembutal intraperitoneally at a dose of 50 mg/kg then after 5 minutes injecting the rats subcutaneously with a solution of the compound of Example 2 in saline at a dose of 100 m.g. per rat. Blood samples are taken 15 minutes after injection with the compound of Example 2 and the growth hormone level determined by radioimmunoassay.
(§2) The activity of the product of Example 3 was determined by the same technique as the compound of Example 2. The dose given the test animals was 1 mg/kg. Growth hormone concentration was reduced to 28±4 ng/ml from the control level of 75±16 (p<0.01). The insulin concentration in micro units per milliliter was reduced marginally to 168±13 from the control level of 208±11 (p>0.05). The glucagon concentration in pico grams per milliliter was not effected, being 31±3 in the treated animals as opposed to 37±2 in the control animals.

glucagon = test: Glucagon concentration in rats, same technique; details: dose 1 mg/kg, control 37±2, not effected
Description: as §1, §2

insulin = test: Insulin concentration in rats, same technique; details: dose 1 mg/kg, control level 208±11 (p>0.05), reduced marginally
Description: as §1, §2

Row | Molecule | growth hormone level (growth hormone; rats about 150 g, nembutal 50 mg/kg i.p., compound s.c. in saline at 100 m.g. per rat, blood 15 minutes after injection, control 212±26 ng/ml) [ng/mL] | glucagon concentration (glucagon) [pico grams per milliliter] | Growth hormone concentration (growth hormone; rats, dose 1 mg/kg, same technique, control level 75±16 (p<0.01)) [ng/mL] | insulin concentration (insulin)
1 | C[C@@H](O)[C@@H]1NC(=O)[C@H](Cc2ccccc2)NC(=O)[C@H]([C@@H](C)O)NC(=O)[C@H](CCCCN)NC(=O)[C@H](Cc2c[nH]c3ccccc23)NC(=O)[C@H](Cc2ccccc2)NC(=O)[C@H](Cc2ccccc2)NC(=O)[C@H](CC(N)=O)NC(=O)[C@@H](N)CSSC[C@@H](C(=O)O)NC(=O)[C@H](CO)NC1=O [Example 2, L-Cysteinyl-L-asparaginyl-L-phenylalanyl-L-phenylalanyl-L-tryptophyl-L-lysyl-L-threonyl-L-phenylalanyl-L-threonyl-L-seryl-L-cysteine- (1,11 cyclic disulfide), diacetate salt] (H-CNFFWKTFTSC-OH; disulfide 1-11) | 103 ± 13 |  |  | 
2 | N-tert-Butyloxycarbonyl-S-p-methoxybenzyl-L-cysteinyl-L-asparaginyl-L-phenylalanyl-L-phenylalanyl-D-tryptophyl-ε-2-chlorobenzyloxycarbonyl-L-lysyl-O-benzyl-L-threonyl-L-phenylalanyl-O-benzyl-L-threonyl-O-benzyl-L-seryl-S-p-methoxybenzyl-L-cysteinyl-hydroxymethyl polystyrene [Example 3] |  | 31±3 | 28 ± 4 | 168±13 micro units per milliliter
